These results are taken from US12383519B2, “Application of CaMK4 in preparation of medicine for preventing and treating psoriasis” (priority 2021, dated 2025).

Test [1] deals with IMQ-induced psoriasiform inflammation in mice. The test can be described thus: IMQ-induced mouse model of psoriasis, treatment with CaMK4 inhibitor KN-93. The test is classed as in vivo. The following applies: KN-93 0.24 mg per mouse, tail vein, vs PBS control. The method, then:
(§1) An internationally used mouse model of psoriasis was used: 6-8-week-old C57BL/6 mice were given 5% IMQ applied to the shaved back skin of the mice at 62.5 mg per day for 5 days. The 6-8-week-old C57BL/6 mice were used as controls.
(§2) 1) The back skin thickness, scaling and erythema development of mice were observed on days 0 -5 after applying IMQ to the shaved back skin of mice. According to the clinical psoriasis area and severity index, the severity of back skin was evaluated by thickness, scaling and erythema. The back skin thickness was measured with vernier calipers. Scaling and erythema were scored on a scale ranging from 0-4: 0 represents none; 1 represents mild; 2 represents moderate; 3 represents significant; and 4 represents very significant.
2) Skin sections were prepared for staining with H&E, and the skin sections were stained by using the conventional universal H&E staining method.
(§3) 3) Statistical analysis of epidermal thickness. Specifically, H&E-stained sections were photographed in a double-blind manner and then measured for epidermal thickness.
5) The mRNA levels of IMQ induced mouse skin pathogenic factors were detected by quantitative PCR. The method was the same as that in the example 1.
62.5 mg of IMQ were applied to the shaved back skin of wild-type mice for 5 days. KN-93 (0.24 mg per mouse) or PBS was injected into mice through tail vein one hour before IMQ application on day 0 and day 2. Samples were collected on day 5 for subsequent experiments.

Test [2] has the same test system. As to the kind of experiment: IMQ-induced mouse model of psoriasis, exogenous IL-10 injection. The class given is in vivo. The following applies: IL-10 1 μg per mouse, tail vein, vs PBS control. Here is the method: as §1, §2, §3
62.5 mg of IMQ were applied to the shaved back skin of wild-type (WT) mice for 5 days. IL-10 (1 μg per mouse) or PBS was injected into mice through tail vein on 1 h before IMQ application on day 0 and day 2. Samples were collected on day 5 for subsequent experiments.
1) The back skin thickness, scaling and erythema development of mice were observed on days 0 -5 after applying IMQ to the shaved back skin of mice, and scored. The method is the same as that in the example 2;
2) Statistical analysis of epidermal thickness was performed; the method is the same as that in the example 2.
3) The mRNA levels of IMQ induced mouse skin pathogenic factors were detected by quantitative PCR. The method was the same as that in the example 1.

As to `COc1ccc(S(=O)(=O)N(CCO)c2ccccc2CN(C)C/C=C/c2ccc(Cl)cc2)cc1` [KN-93], in test [1] (day 0 and day 2), the scaling entry is listed as “reduce” and the skin thickness entry is on record as “reduce”. Moreover, the psoriasiform phenotype result in test [1] (day 0 and day 2, IMQ 5 days) is recorded as “less than that of control mice”. For the same molecule, the epidermal thickness entry in test [1] (H&E sections, day 5) is given as “reduce”. Further, in test [1] (day 5 skin), the “mRNA level of IL-10 in skin” value is reported as “higher than that of control mice” and the “proinflammatory cytokines (skin mRNA, quantitative PCR)” value is given as “reduce”.

B1: IL-10: exogenous interleukin-10, central anti-inflammatory mediator, injected through tail vein (protein, UniProt P22301 19-178, looked up)
Interleukin-10: SPGQGTQSENSCTHFPGNLPNMLRDLRDAFSRVKTFFQMKDQLDNLLLKESLLEDFKGYLGCQALSEMIQFYLEEVMPQAENQDPDIKAHVNSLGENLKTLRLRLRRCHRFLPCENKSKAVEQVKNAFNKLQEKGIYKAMSEFDIFINYIEAYMTMKIRN
Consider B1, for which, in test [2] (day 0 and day 2), the erythema result is reported as “reduced”, the psoriasiform phenotype result is recorded as “attenuated”, the scaling entry is recorded as “reduced” and the skin thickness result is recorded as “reduced”. Also, in test [2] (day 5), the epidermal thickness result is on record as “reduced” and the “proinflammatory cytokines (skin mRNA, quantitative PCR)” value is on record as “reduced”.
